We go through one compound from article PMC6891286, “Towards the Development of an In vivo Chemical Probe for Cyclin G Associated Kinase (GAK)” (Molecules, 2019).

Data set [1] can be described thus: mouse liver microsome metabolic stability. Particulars: for CLint scaled / half-life: mouse, mouse liver microsomes; for half-life: mean average, n = 2. The procedure: SGC-GAK-1 (1) was incubated with MLMs in the presence or absence of added NADPH, and the compound was quantified at various time points over an hour.
The metabolic stability of the 4-anilinoquinolines (8–13) were evaluated in MLMs (Table 1). Half-lives for metabolic clearance were normalized to propranolol in each experimental run to control for variations in the MLM preparations.

Data set [2] in a line: pharmacokinetic profiling in mice, oral dosing. Particulars: C57BL/6 mice, 10 mg/kg po; for Cmax / AUC(0-inf) / Tmax: 10 mg/kg. The data set is classed as in vivo. The procedure: Pharmacokinetic profiling was performed by SAI Life Sciences (Hyderabad, India). […] Prior approval of the Institutional Animal Ethics Committee (IAEC) was obtained before initiation of the study. Healthy male C57BL/6 mice (8–12 weeks old) weighing between 20 and 35 g were procured from (Envigo Research Private Ltd., City, Hyderabad, India). Three mice were housed in each cage. […] Temperature and humidity were recorded by an automatically controlled data logger system. All animals were provided a laboratory rodent diet (Envigo Research Private Ltd., Hyderabad, India). Reverse osmosis water treated with ultraviolet light was provided ad libitum. Eighteen male mice were weighed and divided in to two groups (Group 1 and Group 2), with nine mice in each group. […] The dosing volume administered was 10 mL/kg for the oral route. […] Plasma samples were separated by centrifugation at 4000 rpm for 10 min and stored below −70 °C until bioanalysis. […] The plasma concentration-time data were then used for the pharmacokinetic analysis. A non-compartmental analysis module in Phoenix WinNonlin (Version 6.3, Certara USA Inc., Raleigh, NC, USA) was used to assess the pharmacokinetic parameters. Maximum concentration (Cmax) and time to reach the maximum concentration (Tmax) were the observed values. The areas under the concentration time curve (AUClast and AUCinf) were calculated by linear trapezoidal rule.

In another data set the target is AAK1 (Homo sapiens, UniProt Q2M2I8). Description: NAK family TR-FRET binding displacement assay. To be noted: NAK family FRET screening.
In the next data set the target is STK16 (Homo sapiens, UniProt O75716). Description: NAK family TR-FRET binding displacement assay. Particulars: NAK family FRET screening; read-out: Binding displacement assay STK16 Ki.
Another data set in a line: Kinetic Solubility. The data set is classed as physicochemical. Particulars: pH 7.4, aqueous buffer, kinetic from dmso stock, PBS pH7.4 (100 µM).
Another data set deals with T1, GAK (Homo sapiens, UniProt O14976).
T1 sequence (O14976 1-1311): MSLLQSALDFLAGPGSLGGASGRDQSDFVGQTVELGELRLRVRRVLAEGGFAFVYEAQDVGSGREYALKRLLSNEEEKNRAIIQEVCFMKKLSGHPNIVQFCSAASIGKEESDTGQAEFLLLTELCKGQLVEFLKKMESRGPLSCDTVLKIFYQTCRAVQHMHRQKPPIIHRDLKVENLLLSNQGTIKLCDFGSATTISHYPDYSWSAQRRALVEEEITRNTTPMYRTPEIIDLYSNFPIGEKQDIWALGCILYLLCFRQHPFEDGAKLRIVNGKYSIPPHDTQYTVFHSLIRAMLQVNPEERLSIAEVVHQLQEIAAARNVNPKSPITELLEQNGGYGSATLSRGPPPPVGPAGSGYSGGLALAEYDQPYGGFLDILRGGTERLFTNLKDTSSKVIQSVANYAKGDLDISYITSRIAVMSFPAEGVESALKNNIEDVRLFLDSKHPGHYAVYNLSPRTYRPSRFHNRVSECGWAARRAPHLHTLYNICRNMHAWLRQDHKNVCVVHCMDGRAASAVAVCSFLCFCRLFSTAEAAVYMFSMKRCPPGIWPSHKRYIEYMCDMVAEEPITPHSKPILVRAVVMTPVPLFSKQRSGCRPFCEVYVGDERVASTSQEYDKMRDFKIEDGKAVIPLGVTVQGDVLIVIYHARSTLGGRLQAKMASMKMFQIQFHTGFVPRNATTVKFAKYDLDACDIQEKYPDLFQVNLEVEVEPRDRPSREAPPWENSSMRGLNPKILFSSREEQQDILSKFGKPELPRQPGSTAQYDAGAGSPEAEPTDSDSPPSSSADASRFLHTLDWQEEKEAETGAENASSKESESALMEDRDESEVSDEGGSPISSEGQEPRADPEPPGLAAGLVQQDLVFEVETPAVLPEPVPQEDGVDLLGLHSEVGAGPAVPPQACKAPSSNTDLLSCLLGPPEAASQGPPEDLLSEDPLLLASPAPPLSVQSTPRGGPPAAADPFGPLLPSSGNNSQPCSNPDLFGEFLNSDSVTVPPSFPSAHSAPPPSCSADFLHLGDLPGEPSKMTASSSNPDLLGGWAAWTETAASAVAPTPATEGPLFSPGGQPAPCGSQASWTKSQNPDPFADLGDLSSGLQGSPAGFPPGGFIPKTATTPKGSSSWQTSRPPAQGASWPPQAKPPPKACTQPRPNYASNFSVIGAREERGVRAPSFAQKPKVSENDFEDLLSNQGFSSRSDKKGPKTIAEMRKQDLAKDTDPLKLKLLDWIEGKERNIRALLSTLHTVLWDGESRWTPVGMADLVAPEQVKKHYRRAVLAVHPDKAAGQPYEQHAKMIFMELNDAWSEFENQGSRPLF
Also on record: method as in PMID 30768268, PMID 30973735. Particulars: cited from earlier work.

For data set [3], the system named is prostate cancer cells that contain constitutively-active splice variants of the androgen receptor. The arrangement: method as in PMID 30973735. Particulars: cited from earlier work.
Setting [4] is: male, C57BL/6, mouse, plasma, po, 2 h pretreat 50 mpk ABT.
[5] abbreviates: male, C57BL/6, mouse, plasma, po, without ABT.

Molecules are shown by their SMILES. Read-outs that look alike come from different tables or passages of the source.

Chain of AAK1 (Q2M2I8 whole entry): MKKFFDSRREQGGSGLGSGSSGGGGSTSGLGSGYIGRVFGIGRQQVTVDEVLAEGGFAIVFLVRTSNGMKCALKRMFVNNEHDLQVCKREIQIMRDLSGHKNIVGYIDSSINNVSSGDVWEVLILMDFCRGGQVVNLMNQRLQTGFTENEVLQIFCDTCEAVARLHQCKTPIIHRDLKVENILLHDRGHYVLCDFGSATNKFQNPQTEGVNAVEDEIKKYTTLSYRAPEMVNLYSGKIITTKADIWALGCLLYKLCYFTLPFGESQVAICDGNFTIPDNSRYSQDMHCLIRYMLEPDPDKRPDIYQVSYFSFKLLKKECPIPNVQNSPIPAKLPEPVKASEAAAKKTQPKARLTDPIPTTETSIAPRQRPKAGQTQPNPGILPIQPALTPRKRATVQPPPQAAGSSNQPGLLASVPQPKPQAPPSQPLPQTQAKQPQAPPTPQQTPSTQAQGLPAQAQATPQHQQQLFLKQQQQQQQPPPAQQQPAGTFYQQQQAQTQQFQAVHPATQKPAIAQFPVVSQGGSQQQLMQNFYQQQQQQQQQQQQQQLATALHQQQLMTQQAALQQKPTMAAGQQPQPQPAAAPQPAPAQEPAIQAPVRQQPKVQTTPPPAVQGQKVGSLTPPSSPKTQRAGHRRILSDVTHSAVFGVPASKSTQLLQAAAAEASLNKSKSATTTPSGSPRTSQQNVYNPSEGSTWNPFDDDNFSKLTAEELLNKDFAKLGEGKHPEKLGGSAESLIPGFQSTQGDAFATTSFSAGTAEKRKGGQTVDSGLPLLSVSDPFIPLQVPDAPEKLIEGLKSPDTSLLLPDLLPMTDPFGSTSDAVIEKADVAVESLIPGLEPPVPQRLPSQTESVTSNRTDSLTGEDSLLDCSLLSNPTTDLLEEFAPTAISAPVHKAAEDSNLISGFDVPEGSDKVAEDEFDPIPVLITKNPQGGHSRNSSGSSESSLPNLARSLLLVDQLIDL
Chain of STK16 (O75716 whole entry): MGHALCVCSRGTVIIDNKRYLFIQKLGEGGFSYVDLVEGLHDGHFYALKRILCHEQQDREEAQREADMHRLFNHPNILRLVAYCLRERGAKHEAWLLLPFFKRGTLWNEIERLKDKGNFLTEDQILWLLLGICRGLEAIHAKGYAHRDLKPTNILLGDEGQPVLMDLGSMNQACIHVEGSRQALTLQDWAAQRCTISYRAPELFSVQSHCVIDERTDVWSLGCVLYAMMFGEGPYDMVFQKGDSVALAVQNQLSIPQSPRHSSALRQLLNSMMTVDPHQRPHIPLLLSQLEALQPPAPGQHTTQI

With `COc1cc(Nc2ccnc3ccc(Br)cc23)cc(OC)c1OC` [Compound 1], the “degradation in MLM” value in data set [1] (mouse liver microsomes in the absence of NADPH, over an hour) was “No degradation”. Besides, the intrinsic metabolic clearance (CLint scaled) worked out at 2.4 L/h/kg in data set [1] (Clint (mL/min/kg) (+) ABT, (+) ABT) and 59.4 L/h/kg in data set [1] (Clint (mL/min/kg) (−) ABT, (−) ABT). In addition, the half-life in data set [1] (T1/2 (min) (+) ABT, (+) ABT) was 130 min; in data set [1] (T1/2 (min) (−) ABT, (−) ABT), 5.7 min; in data set [1] (T1/2 (min), mouse liver microsomes with NADPH), 5.7 min; in data set [2] (male, mouse, plasma, without ABT, read-out: T1/2 in mice) it was < 60 min. Further, the highest concentration (Cmax) is 0.097 µg/mL in data set [2] (without ABT); 0.65 µg/mL in data set [2] (male, C57BL/6, mouse, plasma, po, 2 h pretreat 50 mpk ABT, read-out: Cmax); < 0.1 µg/mL in data set [2] (male, C57BL/6, mouse, plasma, po, without ABT, read-out: Cmax). Moreover, the AUC(0-inf) in data set [2] (setting [4]) came out at 1.9 µg·h/mL; in data set [2] (setting [5]) it was 0.098 µg·h/mL. In addition, the time to peak (Tmax) in data set [2] (setting [4]) and in data set [2] (setting [5]) was 30 min in each case. Moreover, the results for the inhibition constant (Ki) at AAK1 and at STK16 were 53 µM and 51 µM, respectively. The solubility kinetic amounted to 57.8 µM in “Kinetic Solubility” (read-out: Kinetic Solubility µM) and 22.5 µg/mL in the data set “Kinetic Solubility” (read-out: Kinetic Solubility µg/mL). On GAK, the “GAK DSF ΔTm” value was 7.7 °C. For the same compound, the “viability of prostate cancer cells” value in data set [3] was “potently inhibits”.
